According to patent US20240158446A1, “CYCLIC COMPOUND HAVING SELECTIVE INHIBITORY ACTION ON KRAS OVER HRAS AND NRAS” (CHUGAI SEIYAKU KABUSHIKI KAISHA, priority 2021, published 2024):
Like-named read-outs stand apart in the source and are kept apart here. *1 amine or outer side, *2 acyl side, *3 side chain or, on linkers, in order; H or OH if unused. Where a SMILES comes first, the peptide text is derived from it. Bridges are numbered along the chain shown (N, C = ends). [ ]: non-standard residue; d: D form. The star is where a group is joined. hPhe(3,5-F2-4-CF3) = N[C@@H](CCc1cc(F)c(C(F)(F)F)c(F)c1)C(=O)O; hPhe(3-Cl-4-CF3) = N[C@@H](CCc1ccc(C(F)(F)F)c(Cl)c1)C(=O)O; NPrPhe(4-CF3) = CCCN[C@@H](Cc1ccc(C(F)(F)F)cc1)C(=O)O; X46 = CCCCN([C@@H](Cc1ccc(C)cc1)C(=O)[*:2])[*:1]; NMeGly(cPent) = CN[C@H](C(=O)O)C1CCCC1; αMeI = CC[C@H](C)[C@](C)(N)C(=O)O; NMeD = CN[C@@H](CC(=O)O)C(=O)O; NMeL = CN[C@@H](CC(C)C)C(=O)O; Morpholide = C1CN(*)CCO1; Ac5c = NC1(C(=O)O)CCCC1; Sar = CNCC(=O)O

Experiments:
[1] = biological target: GDP-bound KRAS wild-type protein (Homo sapiens, UniProt P01116); assay: Binding to KRAS by surface plasmon resonance (SPR), Single Cycle Kinetics; conditions: GDP-bound KRAS wild-type protein, read-out: KRAS KD
[2] = biological target: GDP-bound NRAS wild-type protein (Homo sapiens, UniProt P01111); assay: Binding to NRAS by surface plasmon resonance (SPR), Single Cycle Kinetics; conditions: for NRAS/KRAS (ratio of KD value for NRAS to KD value for KRAS) / NRAS/KRAS (ratio of KD value with respect to NRAS to KD value with respect to KRAS): SPR, GDP-bound NRAS wild-type protein vs GDP-bound KRAS wild-type protein; for NRAS/KRAS (ratio of KD value with respect to GDP-bound NRAS wild-type protein to KD value with respect to KRAS): SPR KD ratio NRAS/KRAS, class symbols
[3] = biological target: GDP-bound HRAS wild-type protein (Homo sapiens, UniProt P01112); assay: Binding to HRAS by surface plasmon resonance (SPR), Single Cycle Kinetics; conditions: for HRAS/KRAS (ratio of KD value for HRAS to KD value for KRAS) / HRAS/KRAS (ratio of KD value with respect to HRAS to KD value with respect to KRAS): SPR, GDP-bound HRAS wild-type protein vs GDP-bound KRAS wild-type protein; for HRAS/KRAS (ratio of KD value with respect to GDP-bound HRAS wild-type protein to KD value with respect to KRAS): SPR KD ratio HRAS/KRAS, class symbols
[4] = SPR, Single Cycle Kinetics, 1:1 binding model
[5] = SPR Single Cycle Kinetics, 1:1 binding model

GDP-bound KRAS wild-type protein, sequence (P01116 whole entry): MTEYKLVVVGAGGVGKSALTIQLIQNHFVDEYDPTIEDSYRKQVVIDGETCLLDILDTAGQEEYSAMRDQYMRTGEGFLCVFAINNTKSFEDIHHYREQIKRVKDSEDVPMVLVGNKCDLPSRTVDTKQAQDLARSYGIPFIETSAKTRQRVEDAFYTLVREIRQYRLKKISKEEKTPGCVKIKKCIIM
GDP-bound NRAS wild-type protein, sequence (P01111 whole entry): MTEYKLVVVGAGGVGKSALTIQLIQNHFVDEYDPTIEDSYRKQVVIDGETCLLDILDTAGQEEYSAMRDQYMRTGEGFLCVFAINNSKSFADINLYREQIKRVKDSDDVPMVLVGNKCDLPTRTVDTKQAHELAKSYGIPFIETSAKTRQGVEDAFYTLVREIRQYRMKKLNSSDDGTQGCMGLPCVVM
GDP-bound HRAS wild-type protein, sequence (P01112 whole entry): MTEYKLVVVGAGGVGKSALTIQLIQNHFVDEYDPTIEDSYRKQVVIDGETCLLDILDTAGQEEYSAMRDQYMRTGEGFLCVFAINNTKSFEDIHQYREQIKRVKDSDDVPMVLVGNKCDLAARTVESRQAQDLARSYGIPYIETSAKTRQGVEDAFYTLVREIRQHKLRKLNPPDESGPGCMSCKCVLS

Row | SMILES | NRAS/KRAS (ratio of KD value for NRAS to KD value for KRAS) [2] | HRAS/KRAS (ratio of KD value for HRAS to KD value for KRAS) [3] | Kd [1, 5] [nM] | NRAS/KRAS (ratio of KD value with respect to NRAS to KD value with respect to KRAS) [2] | HRAS/KRAS (ratio of KD value with respect to HRAS to KD value with respect to KRAS) [3] | also measured
1 | CC[C@H](C)[C@@H]1NC(=O)[C@H](CC2CC2)N(C)C(=O)C[C@@H](C(=O)N(C)C)N(C)C(=O)[C@H](C2CCCC2)N(C)C(=O)C2(CC(C)(C)C2)NC(=O)[C@@H]2C[C@@H](F)CN2C(=O)[C@H](CCc2cc(F)c(C(F)(F)F)c(F)c2)NC(=O)CN(C)C(=O)[C@H](Cc2ccc(C(F)(F)F)cc2)N2CC/C=C\C[C@@H](C2=O)N(C)C(=O)CN(C)C1=O [PP1501, (2S,8S,12R,14S,20S,23S,27S,30S,36S,38Z)-20-cyclopentyl-27-(cyclopropylmethyl)-8-[2-[3,5-difluoro-4-(trifluoromethyl)phenyl]ethyl]-12-fluoro-N,N,3′,3′,4,19,22,26,32,35-decamethyl-30-[(1S)-1-methylpropyl]-3,6,9,15,18,21,25,28,31,34,42-undecaoxo-2-[[4-(trifluoromethyl)phenyl]methyl]spiro[1,4,7,10,16,19,22,26,29,32,35-undecazatricyclo[34.5.1.0^10,14]dotetracont-38-ene-17,1′-cyclobutane]-23-carboxamide] |  |  |  |  |  | Kd [1, 4]: 0.024 nM; NRAS/KRAS (ratio of KD value for NRAS to KD value for KRAS) ([2]; KD ratio class): A (a compound having 10 or more and less than 20 is denoted as A); HRAS/KRAS (ratio of KD value for HRAS to KD value for KRAS) ([3]; KD ratio class): A (a compound having 10 or more and less than 20 is denoted as A)
2 | CCO[C@@H]1C[C@H]2C(=O)NC3(CCC3)C(=O)N(C)[C@@H](C3CCCC3)C(=O)N(C)[C@H](C(=O)N3CCOCC3)CC(=O)N(C)[C@@H](CC)C(=O)N[C@@H]([C@@H](C)CC)C(=O)N(C)CC(=O)N(C)[C@H]3C[C@@H](C)CCN(C3=O)[C@@H](Cc3ccc(C(F)(F)F)cc3)C(=O)N(C)CC(=O)N[C@@H](CCc3cc(F)c(C(F)(F)F)c(F)c3)C(=O)N2C1 [PP1027] | C (A compound having a KD ratio of 0.1 or more and less than 3 is denoted as C) | B (a compound having 3 or more and less than 10 is denoted as B) |  |  |  | Kd ([1]; SPR, Single Cycle Kinetics): 0.056 nM
3 | CCO[C@@H]1C[C@H]2C(=O)NC3(CCC3)C(=O)N(C)[C@@H](C3CCCC3)C(=O)N(C)[C@H](C(=O)N(C)C)CC(=O)N(C)[C@@H](CC3CCCC3)C(=O)N[C@@H]([C@@H](C)CC)C(=O)N(C)CC(=O)N(C)[C@H]3C/C=C\CCN(C3=O)[C@@H](Cc3ccc(C(F)(F)F)cc3)C(=O)N(C)CC(=O)N[C@@H](CCc3ccc(C(F)(F)F)c(Cl)c3)C(=O)N2C1 [PP2842] |  |  | 0.08 |  |  | NRAS/KRAS (ratio of KD value with respect to GDP-bound NRAS wild-type protein to KD value with respect to KRAS) [2]: A (a compound having 10 or more and less than 20 is denoted as A); HRAS/KRAS (ratio of KD value with respect to GDP-bound HRAS wild-type protein to KD value with respect to KRAS) [3]: B (a compound having 3 or more and less than 10 is denoted as B)
4 | CCC[C@H]1C(=O)N[C@@H]([C@@H](C)CC)C(=O)N(C)CC(=O)N(C)[C@H]2C/C=C\CCN(C2=O)[C@@H](Cc2ccc(C(F)(F)F)cc2)C(=O)N(C)CC(=O)N[C@@H](CCc2ccc(Cl)c(Cl)c2)C(=O)N2C[C@H](OCC)C[C@H]2C(=O)NC2(CC(C)(C)C2)C(=O)N(C)[C@@H](CC2CC2)C(=O)N(C)[C@H](C(=O)N(C)C)CC(=O)N1C [PP2811] |  |  | 0.82 |  |  | NRAS/KRAS (ratio of KD value with respect to GDP-bound NRAS wild-type protein to KD value with respect to KRAS) [2]: A (a compound having 10 or more and less than 20 is denoted as A); HRAS/KRAS (ratio of KD value with respect to GDP-bound HRAS wild-type protein to KD value with respect to KRAS) [3]: A (a compound having 10 or more and less than 20 is denoted as A)
5 | C#CC[C@H]1C(=O)N[C@@H]([C@@H](C)CC)C(=O)N(C)CC(=O)N(C)[C@H]2CCCCN(C2=O)[C@@H](Cc2ccc(C(F)(F)F)cc2)C(=O)N(C)CC(=O)N[C@@H](CCc2cc(F)c(C(F)(F)F)c(F)c2)C(=O)N2C[C@H](OCC)C[C@H]2C(=O)NC2(CCC2)C(=O)N(C)[C@@H](C2CCCC2)C(=O)N(C)[C@H](C(=O)N(C)C)CC(=O)N1C [PP0696] |  |  | 0.012 | B (a compound having 3 or more and less than 10 is denoted as B) | B (a compound having 3 or more and less than 10 is denoted as B) | 
6 | C=CCN1CC(=O)N(C)[C@H]2C/C=C\CCN(C2=O)[C@@H](Cc2ccc(C)cc2)C(=O)N(C)CC(=O)N[C@@H](CCc2cc(F)c(C(F)(F)F)c(F)c2)C(=O)N2C[C@H](OCC)C[C@H]2C(=O)NC2(CC(C)(C)C2)C(=O)N(C)[C@@H](C2CCCC2)C(=O)N(C)[C@H](C(=O)N(C)C)CC(=O)N(C)[C@@H](CCC)C(=O)N[C@@H]([C@@H](C)CC)C1=O [PP2094] | A (a compound having 10 or more and less than 20 is denoted as A) | A (a compound having 10 or more and less than 20 is denoted as A) |  |  |  | Kd ([1]; SPR, Single Cycle Kinetics): 0.29 nM
7 | CCCCN1C(=O)CN(C)C(=O)CN(C)C(=O)[C@H]([C@@H](C)CC)NC(=O)[C@H](CC(C)C)N(C)C(=O)C[C@@H](C(=O)N2CCOCC2)N(C)C(=O)[C@H](C2CCCC2)N(C)C(=O)C2(CCCC2)NC(=O)[C@@H]2CCCN2C(=O)[C@H](CCc2ccc(C(F)(F)F)c(Cl)c2)NC(=O)CN(C)C(=O)[C@@H]1Cc1ccc(C)cc1 [PP0062] ([NMeL]I[Sar][Sar][X46][Sar][hPhe(3-Cl-4-CF3)]P[Ac5c][NMeGly(cPent)][NMeD]-Morpholide; lactam N-11) | C (A compound having a KD ratio of 0.1 or more and less than 3 is denoted as C) | C (A compound having a KD ratio of 0.1 or more and less than 3 is denoted as C) | 0.21 |  |  | 
8 | CCO[C@@H]1CCN2C(=O)[C@H](CCc3cc(F)c(C(F)(F)F)c(F)c3)NC(=O)CN(C)C(=O)[C@H](Cc3ccc(C(F)(F)F)cc3)N3CCCC[C@@H](C3=O)N(C)C(=O)CN(C)C(=O)[C@H]([C@@H](C)CC)NC(=O)[C@H](CC(C)C)N(C)C(=O)C[C@@H](C(=O)N3CCOCC3)N(C)C(=O)[C@H](C3CCCC3)N(C)C(=O)C3(CCC3)NC(=O)[C@H]12 [PP1079] | B (a compound having 3 or more and less than 10 is denoted as B) | B (a compound having 3 or more and less than 10 is denoted as B) |  |  |  | Kd ([1]; SPR, Single Cycle Kinetics): 0.23 nM
9 | CC[C@H](C)[C@@H]1NC(=O)[C@H](CC)N(C)C(=O)C[C@@H](C(=O)N(C)C)N(C)C(=O)[C@H](C2CCCC2)N(C)C(=O)C2(CCC2)NC(=O)[C@@H]2C[C@H](N3CCC(F)(F)CC3)CN2C(=O)[C@H](CCc2cc(F)c(C(F)(F)F)c(F)c2)NC(=O)CN(C)C(=O)[C@H](Cc2ccc(C(F)(F)F)cc2)N2CCCCC[C@@H](C2=O)N(C)C(=O)CN(C)C1=O [PP0731] |  |  | 1.6 | B (a compound having 3 or more and less than 10 is denoted as B) | B (a compound having 3 or more and less than 10 is denoted as B) | 
10 | CCCN1C(=O)CN(C)C(=O)CN(C)C(=O)[C@H]([C@@H](C)CC)NC(=O)[C@H](CC(C)C)N(C)C(=O)C[C@@H](C(=O)N2CCOCC2)N(C)C(=O)[C@H](C2CCCC2)N(C)C(=O)[C@](C)([C@@H](C)CC)NC(=O)[C@@H]2CCCN2C(=O)[C@H](CCc2cc(F)c(C(F)(F)F)c(F)c2)NC(=O)CN(C)C(=O)[C@@H]1Cc1ccc(C(F)(F)F)cc1 [PP0757] ([NMeL]I[Sar][Sar][NPrPhe(4-CF3)][Sar][hPhe(3,5-F2-4-CF3)]P[αMeI][NMeGly(cPent)][NMeD]-Morpholide; lactam N-11) |  |  | 4 | B (a compound having 3 or more and less than 10 is denoted as B) | C (A compound having a KD ratio of 0.1 or more and less than 3 is denoted as C) | 
11 | CC[C@H](C)[C@@H]1NC(=O)[C@H](CC2CC2)N(C)C(=O)C[C@@H](C(=O)N(C)CC)N(C)C(=O)[C@H](C2CCCC2)N(C)C(=O)C2(CCC2)NC(=O)[C@@H]2C[C@H](C)CN2C(=O)[C@H](CCc2cc(F)c(C(F)(F)F)c(F)c2)NC(=O)CN(C)C(=O)[C@H](Cc2ccc(C(F)(F)F)cc2)N2CC/C=C\C[C@@H](C2=O)N(C)C(=O)CN(C)C1=O [PP1537, (2S,8S,12S,14S,20S,23S,27S,30S,36S,38Z)-20-cyclopentyl-27-(cyclopropylmethyl)-8-[2-[3,5-difluoro-4-(trifluoromethyl)phenyl]ethyl]-N-ethyl-N,4,12,19,22,26,32,35-octamethyl-30-[(1S)-1-methylpropyl]-3,6,9,15,18,21,25,28,31,34,42-undecaoxo-2-[[4-(trifluoromethyl)phenyl]methyl]spiro[1,4,7,10,16,19,22,26,29,32,35-undecazatricyclo[34.5.1.0^10,14]dotetracont-38-ene-17,1′-cyclobutane]-23-carboxamide] |  |  |  |  |  | Kd [1, 4]: 0.067 nM; NRAS/KRAS (ratio of KD value for NRAS to KD value for KRAS) ([2]; KD ratio class): AA (a compound having 20 or more is denoted as AA); HRAS/KRAS (ratio of KD value for HRAS to KD value for KRAS) ([3]; KD ratio class): A (a compound having 10 or more and less than 20 is denoted as A)
12 | CC[C@H](C)[C@@H]1NC(=O)[C@H](CC(C)C)N(C)C(=O)C[C@@H](C(=O)N2CCOCC2)N(C)C(=O)[C@H](C2CCCC2)N(C)C(=O)C2(CCCC2)NC(=O)[C@@H]2CCCN2C(=O)[C@H](CCc2ccc(C(F)(F)F)c(Cl)c2)NC(=O)CN(C)C(=O)[C@H](Cc2ccc(OC)cc2)N2CCCC[C@@H](C2=O)N(C)C(=O)CN(C)C1=O [PP0534] |  |  | 0.16 | B (a compound having 3 or more and less than 10 is denoted as B) | B (a compound having 3 or more and less than 10 is denoted as B) | 
